In ChEMBL document CHEMBL1201862, “PubChem BioAssay data set” (2004):
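Growth conditions: 96-well plates. Treatment: test compound, 48 hours, 5 concentrations. Analysis: linear interpolation between bracketing concentrations; unreached endpoints set to highest concentration. GI50: concentration for 50% inhibition of growth.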 Calls of active or inactive are those of the source. Rule as the data show it: active = GI50 up to about 1.1 µM and inactive = higher.

Experiments:
Test in all cases: NCI tumour cell line growth inhibition, 48 h
CCRF-CEM = system: CCRF-CEM
DLD-1 = system: DLD-1
HCC 2998 = system: HCC 2998
HOP-92 = system: HOP-92
HT-29 = system: HT-29
KM12 = system: KM12
MOLT-4 = system: MOLT-4
NCI-H226 = system: NCI-H226
NCI-H522 = system: NCI-H522
OVCAR-4 = system: OVCAR-4
OVCAR-5 = system: OVCAR-5
RPMI-8226 = system: RPMI-8226
SF-268 = system: SF-268
SK-MEL-5 = system: SK-MEL-5
SN12C = system: SN12C
SW-620 = system: SW-620
IGROV-1 = system: IGROV-1
MCF7 = system: MCF7
OVCAR-3 = system: OVCAR-3
UO-31 = system: UO-31

Measured: GI50

O=C(NN1C(=O)CS(=O)(=O)C1c1ccc(C(F)(F)F)cc1)c1ccncc1 (configuration not stated)
inactive: CCRF-CEM > 100 µM | DLD-1 > 100 µM | HCC 2998 > 100 µM | HOP-92 > 100 µM | HT-29 > 100 µM | KM12 > 100 µM | MOLT-4 > 100 µM | NCI-H226 > 100 µM | NCI-H522 > 100 µM | OVCAR-4 > 100 µM | OVCAR-5 > 100 µM | RPMI-8226 > 100 µM | SF-268 > 100 µM | SK-MEL-5 > 100 µM | SN12C > 100 µM | SW-620 > 100 µM

COc1ccc(-c2c(C#N)c(NC(=S)NC(=O)c3ccccc3)nc3c2CCCC3)cc1OC
inactive: CCRF-CEM 50.7 µM | HT-29 58.6 µM | IGROV-1 62.1 µM | KM12 > 100 µM | MCF7 46.3 µM | MOLT-4 27 µM | OVCAR-3 99.5 µM | OVCAR-4 45.4 µM | OVCAR-5 98.2 µM | RPMI-8226 42 µM | SF-268 41.8 µM | SK-MEL-5 34.6 µM | SN12C 49 µM | SW-620 75.9 µM | UO-31 35.2 µM

CC1(C)CCc2ccc(OCCC(=O)O)cc2O1
inactive: CCRF-CEM > 100 µM | DLD-1 > 100 µM | HOP-92 > 100 µM | HT-29 > 100 µM | IGROV-1 > 100 µM | KM12 > 100 µM | MOLT-4 > 100 µM | NCI-H226 > 100 µM | NCI-H522 > 100 µM | OVCAR-3 > 100 µM | OVCAR-4 > 100 µM | OVCAR-5 > 100 µM | RPMI-8226 > 100 µM | SF-268 > 100 µM | SK-MEL-5 > 100 µM | SN12C > 100 µM | SW-620 > 100 µM | UO-31 > 100 µM

CCOC(=O)/C(O)=C1\C(=O)N(C)C(=O)C1c1ccc(OC)c(OC)c1 (configuration not stated)
inactive: CCRF-CEM > 100 µM | DLD-1 > 100 µM | HCC 2998 > 100 µM | HOP-92 > 100 µM | HT-29 > 100 µM | IGROV-1 > 100 µM | KM12 > 100 µM | MCF7 > 100 µM | MOLT-4 > 100 µM | NCI-H226 > 100 µM | NCI-H522 > 100 µM | OVCAR-3 > 100 µM | OVCAR-4 > 100 µM | OVCAR-5 > 100 µM | RPMI-8226 > 100 µM | SF-268 > 100 µM | SK-MEL-5 > 100 µM | SN12C > 100 µM | SW-620 > 31.6 µM | UO-31 > 100 µM

CC1(C)N/C(=C\C=O)C(C)(C)N1O
inactive: CCRF-CEM > 100 µM | HCC 2998 > 100 µM | HOP-92 > 100 µM | HT-29 > 100 µM | IGROV-1 > 100 µM | KM12 > 100 µM | MCF7 > 100 µM | MOLT-4 > 100 µM | NCI-H226 > 100 µM | OVCAR-3 > 100 µM | OVCAR-4 > 100 µM | OVCAR-5 > 100 µM | RPMI-8226 > 100 µM | SF-268 > 100 µM | SK-MEL-5 > 100 µM | SN12C > 100 µM | SW-620 > 100 µM | UO-31 > 100 µM
